# Test results published in patent publication US11207277B2, “Methods of treating diseases associated with high-fat diet and vitamin a deficiency using retinoic acid receptor agonists” (Cornell University, priority 2013, dated 2021).
# Entries after “also recorded” stand apart in the source; their conditions may differ.
# Assays:
# [1] = tested on: α-SMA; assay: α-SMA immunofluorescence of liver sections (hepatic stellate cell activation); type: in vivo; conditions: HF diet mice + AC261066 or CD1530, vs HF-vehicle
# Text: (§1) WT male C57/BL6 male mice were maintained on either a standard laboratory chow-fed diet (CFD) with 13% kcal fat, (diet #5053, Lab Diet, Inc, St. Louis, Mo.) or a high fat, western style diet (HFD) with 60% kcals from fat, (diet #58126, Lab Diet, Inc., St. Louis, Mo.) for 4 months. One month after the start of the high fat diet treatment, the high fat diet group was further split into 2 groups for 3 months: i) high fat diet and the drinking water containing 1% DMSO; ii) high fat diet and the drinking water containing 1.5 mg/100 ml AC261066, a specific RARβ agonist. Then mice were sacrificed by cervical dislocation. Blood and various tissue samples were harvested.
# Staining. Fresh mouse liver samples were embedded in optimal cutting temperature (OCT) medium and immediately frozen to −70 centigrade. Cryosections were then fixed in 4% formaldehyde for 1 hr at room temp. Slides were then rinsed three times in deionized water (dH2O) for 30 s, followed by treatment with 0.5% Triton X-100 in PBS for 5 min. Sections were then washed three times with PBS for 5 min. Samples were with incubated 2% bovine serum albumin (BSA) for 30 min at room temperature to block for unspecific antibody binding. Following blocking, sections were washed three times in PBS and incubated with mouse monoclonal antibody against α-SMA (1:500) (Dako, Inc) for 24 h at 4° C. After 24 h sections were washed three times in PB and incubated with Alexa-Flour-488 anti-mouse secondary anti-body (1:500) (Invitrogen, Inc) for 30 min at room temperature. Sections were then washed three times in PBS and incubated with working strength oil-red O solution for 30 minutes at room temperature. Sections were then rinsed for 30 minutes under running tap water and cover-slipped with Vectashield hard mount plus DAPI (Vector Labs, Inc).
# [2] = tested on: hepatocyte lipid accumulation; assay: Hematoxylin and eosin staining of liver sections (hepatic steatosis); type: in vivo; conditions: HF diet mice 4 months + AC261066 or CD1530; vs HF-vehicle
# Text: as §1
# At sacrifice, fresh mouse liver samples were fixed in 4% formaldehyde solution for 24 hr and embedded in paraffin blocks. Liver paraffin sections were cut 5 microns thick and mounted on glass slides and stained with hematoxylin and eosin (H and E) using standard protocols.
# [3] = tested on: hepatic lipids; assay: Oil red O staining of liver sections; type: in vivo; conditions: HF diet mice + AC261066 or CD1530; vs HF-vehicle
# Text: as §1
# Staining. Fresh mouse liver samples were embedded in optimal cutting temperature (OCT) medium and immediately frozen to −70 centigrade. Cryosections were then fixed in 4% formaldehyde for 1 hr at room temp. Slides were then rinsed three times in deionized water (dH2O) for 30 s, followed by treatment with 0.5% Triton X-100 in PBS for 5 min. Sections were then washed three times with PBS for 5 min. Samples were with incubated 2% bovine serum albumin (BSA) for 30 min at room temperature to block for unspecific antibody binding. Following blocking, sections were washed three times in PBS and incubated with mouse monoclonal antibody against α-SMA (1:500) (Dako, Inc) for 24 h at 4° C. […]
# [4] = tested on: c-peptide; assay: c-peptide/glucagon immunofluorescence of pancreatic islets, HF-fed mice; type: in vivo
# Protocol: Immunofluorescence assays on cells and tissue sections were performed as previously described (29). Briefly, differentiated samples were fixed using 4% (w/v) paraformaldehyde and membrane permeabilization (for cells only) was done with 0.3% (w/v) Triton-X 100 (Sigma). Unspecific sites were blocked using 2% BSA for 30 min prior to incubation with rabbit polyclonal anti-PDX1 (Millipore, 06-1379, 1:1000), rabbit anti-C-Peptide (Cell Signaling, 4593, 1:500, Danvers, Mass.) and mouse monoclonal anti-Glucagon (Abcam, ab10988, 1:200) primary antibodies. Phalloidin-TRITC (Millipore, FAK100, 1:1000, Billerica, Mass.) was used to stain the actin stress fiber network (F-actin). Nuclei were stained using DAPI contained in Vectashield® mounting medium for fluorescence (Vector labs, Burlingame, Calif.). Quantitation of C-peptide positive stained cells and islet surface area was performed using MS-Elements Advanced Research software (Nikon).
# WT male C57/BL6 male mice were maintained on either a standard laboratory chow-fed diet (CFD) with 13% kcal fat, (diet #5053, Lab Diet, Inc, St. Louis, Mo.) or a high fat, western style diet (HFD) with 60% kcals from fat, (diet #58126, Lab Diet, Inc., St. Louis, Mo.) for 4 months. […]
# [5] = tested on: RARβ2; assay: Semi-quantitative PCR kidney, RARβ2; type: in vivo; conditions: HF diet mice + AC261066
# Text: as §1
# (§2) Total RNA was extracted from mouse tissues using TRIzol reagent (Life technologies) and (1 μg) was used to synthesize cDNA. cDNA synthesis was performed at 42° C. for 1 h in a final volume of 20 μl using qScript (Quanta, MD). Semi-quantitative PCR were performed Taq DNA polymerase (Invitrogen. CA). Three step PCR was run as follows: 94° C. for 30 s, 58-64° C. for 45 s for primer annealing and 72° C. for 1 min for primer extension. The number of cycles for each primer pair for amplification in the linear range was determined experimentally. PCR products were resolved on 2% agarose gels and visualized by staining with ehtidium bromide. Primers for gene expression used were as follows: […]
# [6] = tested on: 4-hydroxynonenal (4-HNE); assay: 4-HNE staining of kidney sections; type: in vivo, mice; conditions: HF diet + AC261066 vs HF diet group
# Text: as §1
# Paraffin-embedded sections (from two to four mice per group) were deparaffinized and rehydrated, and antigen retrieval was performed using an antigen unmasking solution (Vector Laboratories, H-3300). After quenching endogenous peroxidase with 3% H2O2, the tissue sections were blocked with the blocking reagent (from the M.O.M. kit from Vector Laboratories). Then, tissue sections were incubated with a 4-HNE antibody (1:400; mouse monoclonal antibody; Abcam, ab48506) overnight at 4° C. The sections were then incubated with secondary antibodies (1:200, anti-mouse IgG from the M.O.M kit). As a negative control, sections were stained without incubation with primary antibodies. […]
# [7] = tested on: 4-hydroxynonenal (4-HNE); assay: 4-HNE staining of pancreas sections, HF-fed mice; type: in vivo; conditions: HF diet mice, AC261066 1.5 mg/100 ml drinking water 3 months; vs HF-vehicle
# Protocol: AC261066 was dissolved in dimethyl sulfoxide (DMSO) at the concentration of 1.5 mg/ml, and diluted in the drinking water for mice to the final concentration of 1.5 mg/100 ml.
# as §1
# Paraffin-embedded sections (from two to four mice per group) were deparaffinized and rehydrated, and antigen retrieval was performed using an antigen unmasking solution (Vector Laboratories, H-3300). After quenching endogenous peroxidase with 3% H2O2, the tissue sections were blocked with the blocking reagent (from the M.O.M. kit from Vector Laboratories). Then, tissue sections were incubated with a 4-HNE antibody (1:400; mouse monoclonal antibody: Abcam, ab48506) overnight at 4° C. […]
# [8] = tested on: MCP-1; assay: Semi-quantitative PCR liver, MCP-1; type: in vivo; conditions: HF diet mice + AC261066 or CD1530
# Text: as §1
# as §2, with “(Invitrogen,” for “(Invitrogen.”, “resolved” for “resolved on”
smiles,measurement,setting,value
CCCCOCCOc1nc(-c2ccc(C(=O)O)c(F)c2)sc1C [AC261066],α-SMA positive staining in liver (HSC activation),[1],diminished activation of hepatic stellate cells; also recorded: decreased expression of α-SMA; also recorded: decreased intensity and regions of α-SMA positive staining
same,α-SMA positive staining in liver (HSC activation),[1]; listed as AC261011,α-SMA protein is decreased
same,hepatocyte lipid infiltration / hepatic steatosis (H and E),[2],diminished hepatic steatosis; also recorded: prevent hepatic steatosis; also recorded: marked decreased hepatocyte lipid infiltration
same,hepatic lipid accumulation (oil red O),[3],marked diminished hepatic lipid accumulation
same,c-peptide level in pancreatic islets,[4]; HF diet + AC261066 vs HF diet mice,slightly reduces expression of c-peptide; also recorded: slightly decreased c-peptide level
same,c-peptide staining in pancreatic islets,[4]; HF+AC261066 fed mice vs control diet controls,marked increase in c-peptide staining
same,RARβ2 mRNA levels in kidney,[5],restores RAR beta and LRAT mRNA levels; also recorded: did not have decreased RARβ2 mRNA levels
same,4-HNE levels (oxidative stress) in kidneys,[6],reduces oxidative stress (ROS); also recorded: lower 4-HNE levels than those from the high fat diet group
same,4-HNE staining intensity (oxidative stress) in pancreatic islets,[7],reduces oxidative stress in the pancreatic islets; also recorded: markedly lower 4-HNE staining intensity levels
same,mRNA levels of MCP-1 in liver,[8],decreases levels of inflammatory proteins MCP-1 and TNF alpha
